# Measurements published in PMC9519446, “Discovery of an Orally Active Benzoxaborole Prodrug Effective in the Treatment of Chagas Disease in Non-human Primates” (Nature microbiology, 2022).
# Where “and” joins values, the source holds several entries; their conditions need not be identical. Equal values may be shown once. Read-outs that look alike come from different tables or passages of the source.
# Key:
# T. cruzi Brazil strain [1] = test system: T. cruzi Brazil strain; parameters: method as in PMID 23945371; details: cited from earlier work
# [2] = in vivo
# [3] = test system: T. cruzi intracellular amastigotes; assay: In vitro anti-T. cruzi intracellular amastigote growth inhibition assay (tdTomato fluorescence over 72 hours, Vero cells); assay type: cell-based, Trypanosoma cruzi; details: Trypanosoma cruzi, Vero
# Experimental: (§1) The in vitro anti-T. cruzi amastiogote activity assay was performed and optimized based on the protocol described previously. The change in tdTomato fluorescence intensity was determined as a measurement of growth over 72 hours of culture. For assaying drug effects on extracellular amastigotes, trypomastigotes were collected from infected Vero cell cultures and converted in acidic media as previously described. Amastigotes (50,000/well) were incubated with 2-fold serial dilutions of compounds for 48 hours. The ATP production was used as an indication of growth in this case, and was measured by ATPlite Luminescence ATP Detection Assay System (PerkinElmer). Both fluorescence and luminescence were read using a BioTek Synergy Hybrid Multi-Mode reader equipped with the software Gene5 v 2.0 (BioTek). The dose-response curve was generated by […] analysis with GraphPad Prism v9.4.0 (GraphPad Software).
# [4] = test system: representative cytochrome P450 enzymes; assay: Cytochrome P450 inhibition; assay type: in vitro ADME; details: 10 uM
# [5] = test system: TcCBP KO T. cruzi intracellular amastigotes; assay: microbe, parasite or virus in culture; assay type: cell-based; details: Trypanosoma cruzi, read-out: TcCBP KO IC50
# Experimental: as §1
# The CBPs knockout was produced using ribonucleoprotein (RNP) complexes as previously described. Briefly, Brazil tdTomato strain epimastigotes were electroporated with RNP complexes containing SaCas9 and an sgRNA targeting CBP gene TcBrA4_0048170, plus a repair template containing stop codons in all three reading frames and the M13 sequence for use as a PCR anchor. The sgRNA targeted the ‘[…]” sequence. After 2 days of recovery, single-cell clones were derived by depositing epimastigotes into a 96-well plate at a density of 0.5 cell/well by using a MoFlo Astrios EQ cell sorter (Beckman Coulter). DNA isolation was performed for clones, and primer pair of 5’-[…]-3’ and 5’- […] -3’ was used for amplifying the wild type allele, while primer pair of M13-F: 5’- […] -3’ and 5’- […] -3’ was used for amplifying the mutant allele.
# [6] = In vitro micronucleus study; assay type: cell-based
# T. cruzi Brazil strain [7] = assay: Mouse cure assays (daily oral treatment, immunosuppression, qPCR of skeletal muscle, blood microscopy, hemoculture); assay type: in vivo, C57BL/6 mice; details: individual mice
# Experimental: Male or female C57BL/6 mice were intraperitoneally infected with 10^4 trypomastigotes of the Brazil strain. Mouse infection was confirmed at 25-30 dpi by detection of CD8^+ T cells specific against the T. cruzi TSKb20 peptide in blood. Compounds resuspended in 1% carboxymethyl cellulose and 0.1% Tween 80, were administered daily by gavage at the specified concentrations. In order to optimally detect persistent infection, immune responses in the mice were suppressed by intraperitoneal injection of four doses of cyclophosphamide every 2-3 days (200 mg/kg/day), beginning one week after the end of therapeutic treatment. At the end of the immunosuppression regimen, peripheral blood was checked under light microscope for parasites and cultured in LDNT media. Mouse skeletal muscle samples were obtained at the end of the immunosuppression and processed for T. cruzi-DNA detection by qPCR as previously described.
# [8] = test system: broad array of mammalian enzymes, receptors and ion channels; assay: Preliminary safety pharmacology panel; assay type: binding
# [9] = test system: CPSF3-OE T. cruzi intracellular amastigotes; assay: microbe, parasite or virus in culture; assay type: cell-based; details: Trypanosoma cruzi, read-out: CPSF3-OE IC50, intracellular amastigotes
# Experimental: as §1
# The CPSF3 gene was amplified using primers ‘[…]’ and ‘[…]’, and integrated into the pTrex vector [47] by NEBuilder HiFi DNA assembly (New England Biolabs). The construct of pTrex-CPSF was then transfected into Brazil tdTomato epimastigotes and selected by 60ug/ml blasticidin.
# To confirm the CPSF overexpression in the selected transfectants, RNA was extracted as previously described and converted to cDNA using SuperScript Reverse Transcriptase (Invitrogen). Quantitative PCR reactions were performed in triplicate on the C1000 Touch Bio-Rad CFX96 real-time PCR detection system for CPSF using primer sets CPSF-1 (5'-[…]-3' and 5'-[…]-3') and CPSF-2 (5'-[…]-3' and 5'-[…]-3') in both control and CPSF over-expressing parasites, and the expression level was normalized to tubulin which was amplified using primers: ‘[…]’ and ‘[…]’.
# [10] = High dose 7-day toxicology study with exposure; details: 7-day toxicology studies / rats
# T. cruzi = details: cited from earlier work
# [11] = test system: T. cruzi CL strain in Vero cells; assay: RNA-seq: parasite mRNA relative to host cell (Vero) mRNA; assay type: cell-based, Trypanosoma cruzi
# Experimental: The drug concentration used for treatment was set at 5 times the IC50. Samples were collected at several time points for RNA extraction as previously described. rRNA-depleted RNA library construction and RNA sequencing using Illumina Nextseq 75PE was carried out by Georgia Genomics and Bioinformatics Core (GGBC, University of Georgia, Georgia). […] The mapping rate was quantified by HTseq v0.6.1 [51].
# [12] = in vitro, Fig. 1a, Extended Data Fig. 1a, read-out: T. cruzi IC50
smiles,measurement,setting,value
O=C(Nc1ccc2c(c1)B(O)OC2)c1ccc(F)cc1C(F)(F)F [AN4169],cure of infected mice,T. cruzi Brazil strain [1]; mice infected with the T. cruzi Brazil strain,100%
same,rodent tolerability,[2],insufficient therapeutic margin
same,IC50,[3]; [12],350 nM
Cc1c(C(=O)N[C@H](C(=O)OCc2ccc(F)cc2)C(C)(C)O)ccc2c1B(O)OC2 [AN14817],inhibition of representative cytochrome P450 enzymes,[4],did not demonstrate significant inhibition
same,IC50,[5],2200 nM
same,"genotoxicity, in vitro micronucleus",[6],non-genotoxic
same,Parasite equivalent/ 50 ng of DNA of skeletal muscle,"T. cruzi Brazil strain [7]; Fig. 3b, mice treated for 40 days",0.12 Parasite equivalent/ 50 ng of DNA and 0.09 Parasite equivalent/ 50 ng of DNA and 0.00383 Parasite equivalent/ 50 ng of DNA and 0.0341 Parasite equivalent/ 50 ng of DNA and 0.00725 Parasite equivalent/ 50 ng of DNA and 0.00351 Parasite equivalent/ 50 ng of DNA and 0.0145 Parasite equivalent/ 50 ng of DNA and 0.17 Parasite equivalent/ 50 ng of DNA
same,Parasite equivalent/ 50 ng of DNA of skeletal muscle,"T. cruzi Brazil strain [7]; Fig. 3c, mice treated for 20 days",0.30 Parasite equivalent/ 50 ng of DNA and 0.59 Parasite equivalent/ 50 ng of DNA and 0.42 Parasite equivalent/ 50 ng of DNA and 0.29 Parasite equivalent/ 50 ng of DNA and 0.40 Parasite equivalent/ 50 ng of DNA
same,activity at 0.00407 µM,"[3]; 72 h, read-out: % of maximum, WT, [uM] -2.39 [sic], single replicates",79%
same,IC50,"[3]; read-out: WT IC50, WT intracellular amastigotes, control of CPSF3-OE comparison",6.3 nM
same,IC50,"[3]; read-out: WT IC50, WT intracellular amastigotes, control of TcCBP KO comparison",6.3 nM
same,IC50,[3]; [12],12 nM
same,"genotoxicity, Ames",Ames study,non-genotoxic
same,"affinity for mammalian enzymes, receptors and ion channels",[8],little to no affinity
same,IC50,[9],24.8 nM
same,dose proportionality of exposure,[10],non-dose proportional exposure
"O=C(Cn1ccnc1[N+](=O)[O-])NCc1ccccc1 [benznidazole, reference compound]",cure with 20 days of treatment,T. cruzi Brazil strain [1]; mice,only partially effective in generating cure
same,failures in treatment trial,"T. cruzi; T. cruzi-infected NHPs, ref Tarleton, et al., in preparation",> 60%
same,cure rate,"T. cruzi; cyno macaques, ref unpublished result of the authors",~ 30%
same,RNA-seq reads mapped to African green monkey,[11]; 0hpt,52
same,RNA-seq reads mapped to T.cruzi CL Brener,[11]; 0hpt,17
same,RNA-seq reads unmapped,[11]; 0hpt,31
same,RNA-seq reads mapped to African green monkey,[11]; 12hpt,61
same,RNA-seq reads mapped to T.cruzi CL Brener,[11]; 12hpt,14
same,RNA-seq reads unmapped,[11]; 12hpt,25
same,RNA-seq reads mapped to African green monkey,[11]; 24hpt,62
same,RNA-seq reads mapped to T.cruzi CL Brener,[11]; 24hpt,12
same,RNA-seq reads unmapped,[11]; 24hpt,27
